Converted amounts (≈) assume the structure as drawn.
Experiments:
Enterococcus faecium [1] = assay: Antimicrobial activity against Enterococcus faecium QF31 harboring erythromycin resistance rRNA methylase B and chloramphenicol-florfenicol resistance methylase assessed as inhibition of visible growth of bacteria incubated for 20 hrs by broth microdilution method; assay type: functional
Staphylococcus aureus [2] = assay: Antimicrobial activity against Staphylococcus aureus ATCC 29213 assessed as inhibition of visible growth of bacteria incubated for 20 hrs by broth microdilution method; assay type: functional
Streptococcus suis = assay: Antimicrobial activity against Streptococcus suis P1/7 assessed as inhibition of visible growth of bacteria incubated for 20 hrs by broth microdilution method; assay type: functional
Enterococcus faecalis [3] = assay: microbe, parasite or virus in culture; assay type: functional; conditions: SF23-1, time 20 hrs
Description: Antimicrobial activity against Enterococcus faecalis SF23-1 harboring erythromycin-resistance rRNA methylase B, tetracycline efflux protein L and chloramphenicol-florfenicol resistance methylase assessed as inhibition of visible growth of bacteria incubated for 20 hrs by broth microdilution method

Staphylococcus aureus [4] = assay: Antimicrobial activity against Staphylococcus aureus YZSA-24 harboring erythromycin resistance rRNA methylase C and methicillin resistance gene resistance locus assessed as inhibition of visible growth of bacteria incubated for 20 hrs by broth microdilution method; assay type: functional
Enterococcus faecalis [5] = assay: Antimicrobial activity against Enterococcus faecalis JH2-2 assessed as inhibition of visible growth of bacteria incubated for 20 hrs by broth microdilution method; assay type: functional
Enterococcus faecium [6] = assay: Antimicrobial activity against Enterococcus faecium HFY01 assessed as inhibition of visible growth of bacteria incubated for 20 hrs by broth microdilution method; assay type: functional
Acinetobacter baumannii [7] = assay: Antimicrobial activity against Acinetobacter baumannii AB11 assessed as inhibition of visible growth of bacteria incubated for 20 hrs by broth microdilution method; assay type: functional
Streptococcus pyogenes = assay: Antimicrobial activity against Streptococcus pyogenes DL02 harboring erythromycin-resistance rRNA methylase B assessed as inhibition of visible growth of bacteria incubated for 20 hrs by broth microdilution method; assay type: functional
Enterococcus faecium [8] = assay: Antimicrobial activity against Enterococcus faecium MC38 harboring erythromycin resistance rRNA methylase B and oxazolidinone-phenicol transferable resistance gene assessed as inhibition of visible growth of bacteria incubated for 20 hrs by broth microdilution method; assay type: functional
Pseudomonas aeruginosa [9] = assay: Antimicrobial activity against Pseudomonas aeruginosa PA14 assessed as inhibition of visible growth of bacteria incubated for 20 hrs by broth microdilution method; assay type: functional
Staphylococcus aureus [10] = assay: Antimicrobial activity against Staphylococcus aureus YZSA-21 harboring erythromycin resistance rRNA methylase C assessed as inhibition of visible growth of bacteria incubated for 20 hrs by broth microdilution method; assay type: functional
Streptococcus agalactiae = assay: Antimicrobial activity against Streptococcus agalactiae DL03 harboring erythromycin-resistance rRNA methylase B assessed as inhibition of visible growth of bacteria incubated for 20 hrs by broth microdilution method; assay type: functional
Acinetobacter baumannii [11] = assay: Antimicrobial activity against Acinetobacter baumannii 7979 assessed as inhibition of visible growth of bacteria incubated for 20 hrs by broth microdilution method; assay type: functional
Enterococcus faecalis [12] = assay: Antimicrobial activity against Enterococcus faecalis J2 harboring erythromycin-resistance rRNA methylase B and oxazolidinone phenicol transferable resistance gene assessed as inhibition of visible growth of bacteria incubated for 20 hrs by broth microdilution method; assay type: functional
Salmonella enteritidis = assay: Antimicrobial activity against Salmonella enteritis S1 assessed as inhibition of visible growth of bacteria incubated for 20 hrs by broth microdilution method; assay type: functional, Salmonella enterica subsp. enterica serovar Enteritidis; conditions: Salmonella enterica
Enterococcus faecalis [13] = assay: Antimicrobial activity against Enterococcus faecalis ES01 harboring erythromycin-resistance rRNA methylase B and vanB-type vancomycin-resistance locus assessed as inhibition of visible growth of bacteria incubated for 20 hrs by broth microdilution method; assay type: functional
Staphylococcus aureus [14] = assay: Antimicrobial activity against Staphylococcus aureus YZSA-15 harboring erythromycin resistance rRNA methylase C and vancomycin resistance locus assessed as inhibition of visible growth of bacteria incubated for 20 hrs by broth microdilution method; assay type: functional
Klebsiella pneumoniae = assay: Antimicrobial activity against Klebsiella pneumoniae 9-1 assessed as inhibition of visible growth of bacteria incubated for 20 hrs by broth microdilution method; assay type: functional
Pseudomonas aeruginosa [15] = assay: Antimicrobial activity against Pseudomonas aeruginosa PA01 assessed as inhibition of visible growth of bacteria incubated for 20 hrs by broth microdilution method; assay type: functional

SMILES	MIC (Enterococcus faecium [1]) [µg/mL]	MIC (Staphylococcus aureus [2]) [µg/mL]	MIC (Streptococcus suis) [µg/mL]	MIC (Enterococcus faecalis [3]) [µg/mL]	other results
CC1(C)C/C(=C\c2ccc(-c3ccc(Cl)c(C(F)(F)F)c3)o2)c2nc3ccccc3c(C(=O)O)c2C1	8 (≈ 15.6 µM)	32 (≈ 62.5 µM)	32 (≈ 62.5 µM)	4 (≈ 7.81 µM)	
FC(F)(F)c1cc(-c2ccc(/C=C3\CCCc4c3nc3ccccc3c4Cl)o2)ccc1Cl	64 (≈ 135 µM)	> 64	> 64	> 64	
O=C(O)C1=c2ccccc2=NC2/C(=C/c3cccc(-c4ccc(Cl)c(C(F)(F)F)c4)c3)CCC12 (configuration not stated)	> 64	> 64	> 64	> 64	
O=C(O)c1c2c(nc3ccccc13)/C(=C/c1ccc(-c3ccc(Cl)cc3)o1)CCC2	16 (≈ 38.5 µM)	16 (≈ 38.5 µM)	32 (≈ 76.9 µM)	> 64	
CC1(C)C/C(=C\c2ccc(-c3cccc(Cl)c3Cl)o2)c2nc3ccccc3c(C(=O)O)c2C1	8 (≈ 16.7 µM)	16 (≈ 33.4 µM)	> 64	8 (≈ 16.7 µM)	
O=C(O)c1c2c(nc3ccccc13)/C(=C/c1ccc(-c3cccc(Cl)c3)o1)CCC2	16 (≈ 38.5 µM)	16 (≈ 38.5 µM)	16 (≈ 38.5 µM)	> 64	
CC1C/C(=C\c2ccc(-c3ccc(Cl)cc3)o2)c2nc3ccccc3c(C(=O)O)c2C1 (racemic)	16 (≈ 37.2 µM)	8 (≈ 18.6 µM)	32 (≈ 74.4 µM)	> 64	
COc1ccc(-c2ccc(/C=C3\CC(C)Cc4c3nc3ccccc3c4C(=O)O)o2)cc1 (racemic)	16 (≈ 37.6 µM)	> 64	32 (≈ 75.2 µM)	> 64	
CC1C/C(=C\c2ccc(-c3ccc(Cl)c(C(F)(F)F)c3)o2)c2nc3ccccc3c(C(=O)O)c2C1 (racemic)	8 (≈ 16.1 µM)	2 (≈ 4.02 µM)	32 (≈ 64.3 µM)	8 (≈ 16.1 µM)	
CC1C/C(=C\c2ccc(-c3cccc(Cl)c3Cl)o2)c2nc3ccccc3c(C(=O)O)c2C1 (racemic)	8 (≈ 17.2 µM)	2 (≈ 4.31 µM)	64 (≈ 138 µM)	8 (≈ 17.2 µM)	
CC1C/C(=C\c2ccc(-c3cccc(Cl)c3Cl)cc2)c2nc3ccccc3c(C(=O)O)c2C1 (racemic)	8 (≈ 16.9 µM)	2 (≈ 4.22 µM)	> 64	8 (≈ 16.9 µM)	
CC1C/C(=C\c2ccc(-c3ccc(Cl)c(C(F)(F)F)c3)o2)c2nc3ccccc3c(C(=O)N3CCN(C)CC3)c2C1 (racemic)	> 64	> 64	> 64	> 64	
CC1C/C(=C\c2ccc(-c3ccc(Cl)c(C(F)(F)F)c3)nc2)c2nc3ccccc3c(C(=O)O)c2C1 (racemic)	8 (≈ 15.7 µM)	4 (≈ 7.86 µM)	> 64	8 (≈ 15.7 µM)	
CC1C/C(=C\c2cccc(-c3ccc(Cl)c(C(F)(F)F)c3)c2)c2nc3cc(N4CCOCC4)ccc3c(C(=O)O)c2C1 (racemic)	4 (≈ 6.74 µM)	8 (≈ 13.5 µM)	8 (≈ 13.5 µM)	32 (≈ 54 µM)	
CC1C/C(=C\c2cccc(-c3ccc(Cl)c(C(F)(F)F)c3)c2)c2nc3cc(N4CCN(C)CC4)ccc3c(C(=O)O)c2C1 (racemic)	8 (≈ 13.2 µM)	16 (≈ 26.4 µM)	8 (≈ 13.2 µM)	8 (≈ 13.2 µM)	
CC1C/C(=C\c2cccc(-c3ccc(Cl)c(C(F)(F)F)c3)c2)c2nc3ccccc3c(C(N)=O)c2C1 (racemic)	> 64	> 64	> 64	> 64	
CC1C/C(=C\c2ccco2)c2nc3ccccc3c(C(=O)O)c2C1 (racemic)	16 (≈ 50.1 µM)	> 64	32 (≈ 100 µM)	> 64	
COc1ccc2nc3c(c(C(=O)O)c2c1)CC(C)C/C3=C\c1ccc(-c2ccc(Cl)c(C(F)(F)F)c2)cc1 (racemic)	4 (≈ 7.44 µM)	4 (≈ 7.44 µM)	> 64	4 (≈ 7.44 µM)	
Cc1ccc(-c2ccc(/C=C3\CC(C)Cc4c3nc3ccccc3c4C(=O)O)o2)c(Cl)c1 (racemic)	16 (≈ 36 µM)	4 (≈ 9.01 µM)	> 64	8 (≈ 18 µM)	

SMILES	MIC (Enterococcus faecium [1]) [µg/mL]	MIC (Staphylococcus aureus [2]) [µg/mL]	MIC (Streptococcus suis) [µg/mL]	MIC (Enterococcus faecalis [3]) [µg/mL]	other results
COc1ccc2nc3c(c(C(=O)O)c2c1)CC(C)C/C3=C\c1ccc(-c2ccc(Cl)c(C(F)(F)F)c2)o1 (racemic)	> 64	32 (≈ 60.6 µM)	64 (≈ 121 µM)	64 (≈ 121 µM)	
CC1C/C(=C\c2ccc(-c3ccc([N+](=O)[O-])cc3)o2)c2nc3ccccc3c(C(=O)O)c2C1 (racemic)	64 (≈ 145 µM)	64 (≈ 145 µM)	> 64	> 64	
CCCCCCCCc1ccc(-c2ccc(/C=C3\CC(C)Cc4c3nc3ccc(OC)cc3c4C(=O)O)cc2)cc1 (racemic)	8 (≈ 14.6 µM)	> 64	32 (≈ 58.4 µM)	16 (≈ 29.2 µM)	
CC1C/C(=C\c2ncc([N+](=O)[O-])n2C)c2nc3ccccc3c(C(=O)O)c2C1 (racemic)	> 64	> 64	> 64	> 64	
CC1C/C(=C\c2cccc(-c3ccc(Cl)c(C(F)(F)F)c3)c2)c2nc3ccc(O)cc3c(C(=O)O)c2C1 (racemic)	8 (≈ 15.3 µM)	8 (≈ 15.3 µM)	4 (≈ 7.63 µM)	16 (≈ 30.5 µM)	
CC1C/C(=C\c2cccc(-c3ccc(Cl)c(C(F)(F)F)c3)c2)c2nc3ccccc3c(C(=O)O)c2C1 (racemic)	4 (≈ 7.87 µM)	2 (≈ 3.94 µM)	> 64	4 (≈ 7.87 µM)	
CC1C/C(=C\c2nc(-c3ccc(Cl)c(C(F)(F)F)c3)cs2)c2nc3ccccc3c(C(=O)O)c2C1 (racemic)	32 (≈ 62.1 µM)	16 (≈ 31.1 µM)	64 (≈ 124 µM)	16 (≈ 31.1 µM)	
CC1C/C(=C\c2ccc(-c3c(Cl)cc(C(F)(F)F)cc3Cl)cc2)c2nc3ccccc3c(C(=O)O)c2C1 (racemic)	8 (≈ 14.7 µM)	4 (≈ 7.37 µM)	> 64	8 (≈ 14.7 µM)	
CC1C/C(=C\c2cccc(-c3cccc(Cl)c3Cl)c2)c2nc3ccccc3c(C(=O)O)c2C1 (racemic)	8 (≈ 16.9 µM)	4 (≈ 8.43 µM)	> 64	8 (≈ 16.9 µM)	
Cc1cc(/C=C2\CC(C)Cc3c2nc2ccccc2c3C(=O)O)cc(C)c1Oc1ccc([N+](=O)[O-])cc1 (racemic)	8 (≈ 16.2 µM)	4 (≈ 8.09 µM)	> 64	16 (≈ 32.4 µM)	
COc1ccc2nc3c(c(C(=O)O)c2c1)CC(C)C/C3=C\c1ccc(Oc2c(Cl)cc(N)cc2Cl)cc1 (racemic)	8 (≈ 14.9 µM)	4 (≈ 7.47 µM)	64 (≈ 120 µM)	16 (≈ 29.9 µM)	
CCCCCCc1ccc(-c2ccc(/C=C3\CC(C)Cc4c3nc3ccc(OC)cc3c4C(=O)O)cc2)cc1 (racemic)	4 (≈ 7.7 µM)	16 (≈ 30.8 µM)	32 (≈ 61.6 µM)	8 (≈ 15.4 µM)	
Cc1cc(/C=C2\CC(C)Cc3c2nc2ccccc2c3C(=O)O)cc(C)c1O (racemic)	> 64	> 64	> 64	> 64	
CC1C/C(=C\c2ccc(-c3ccc(Cl)c(Cl)c3)o2)c2nc3ccccc3c(C(=O)O)c2C1 (racemic)	16 (≈ 34.5 µM)	8 (≈ 17.2 µM)	> 64	8 (≈ 17.2 µM)	
CC1C/C(=C\c2cccc(-c3ccc(Cl)c(C(F)(F)F)c3)c2)c2nc3ccccc3cc2C1 (racemic)	> 64	> 64	> 64	> 64	
CC1C/C(=C\c2cc3ccc(Br)cc3s2)c2nc3ccccc3c(C(=O)O)c2C1 (racemic)	64 (≈ 138 µM)	16 (≈ 34.5 µM)	64 (≈ 138 µM)	16 (≈ 34.5 µM)	
COc1ccc2nc3c(c(C(=O)O)c2c1)CC(C)C/C3=C\c1cccc(NC(=O)c2cccc(Cl)c2Cl)c1 (racemic)	> 64	> 64	> 64	> 64	
CC1C/C(=C\c2ccc(-c3c(Cl)cc(Cl)cc3Cl)cc2)c2nc3ccccc3c(C(=O)O)c2C1 (racemic)	8 (≈ 15.7 µM)	2 (≈ 3.93 µM)	> 64	4 (≈ 7.86 µM)	
CC1(C)S[C@@H]2[C@H](NC(=O)[C@H](N)c3ccccc3)C(=O)N2[C@H]1C(=O)O [AMPICILLIN]	16 (≈ 45.8 µM)	1 (≈ 2.86 µM)	≤ 0.5		MIC (Staphylococcus aureus [4]): > 32 µg/mL; MIC (Enterococcus faecalis [5]): 16 µg/mL (≈ 45.8 µM); MIC (Enterococcus faecium [6]): 1 µg/mL (≈ 2.86 µM); MIC (Acinetobacter baumannii [7]): < 0.06 µg/mL; MIC (Streptococcus pyogenes): 0.5 µg/mL (≈ 1.43 µM); MIC (Enterococcus faecium [8]): 32 µg/mL (≈ 91.6 µM); MIC (Pseudomonas aeruginosa [9]): > 32 µg/mL; MIC (Staphylococcus aureus [10]): 1 µg/mL (≈ 2.86 µM); MIC (Streptococcus agalactiae): 0.5 µg/mL (≈ 1.43 µM); MIC (Acinetobacter baumannii [11]): > 32 µg/mL; MIC (Enterococcus faecalis [12]): > 32 µg/mL; MIC (Salmonella enteritidis): 32 µg/mL (≈ 91.6 µM); MIC (Enterococcus faecalis [13]): 16 µg/mL (≈ 45.8 µM); MIC (Staphylococcus aureus [14]): 2 µg/mL (≈ 5.72 µM); MIC (Klebsiella pneumoniae): > 32 µg/mL; MIC (Pseudomonas aeruginosa [15]): > 32 µg/mL

Source: ChEMBL document CHEMBL6078677, “Discovery and optimization of tetrahydroacridine derivatives as a novel class of antibiotics against multidrug-resistant Gram-positive pathogens by targeting type I signal peptidase and disrupting bacterial membrane” (Eur J Med Chem, 2025)
